The values below come from US11040981B2, “Pyrrolotriazine compounds and methods of inhibiting TAM kinases” (Syros Pharmaceuticals, Inc., priority 2017, dated 2021).

Test [1] concerns the target T1, AXL (Homo sapiens, UniProt P30530).
T1 sequence (P30530 26-894): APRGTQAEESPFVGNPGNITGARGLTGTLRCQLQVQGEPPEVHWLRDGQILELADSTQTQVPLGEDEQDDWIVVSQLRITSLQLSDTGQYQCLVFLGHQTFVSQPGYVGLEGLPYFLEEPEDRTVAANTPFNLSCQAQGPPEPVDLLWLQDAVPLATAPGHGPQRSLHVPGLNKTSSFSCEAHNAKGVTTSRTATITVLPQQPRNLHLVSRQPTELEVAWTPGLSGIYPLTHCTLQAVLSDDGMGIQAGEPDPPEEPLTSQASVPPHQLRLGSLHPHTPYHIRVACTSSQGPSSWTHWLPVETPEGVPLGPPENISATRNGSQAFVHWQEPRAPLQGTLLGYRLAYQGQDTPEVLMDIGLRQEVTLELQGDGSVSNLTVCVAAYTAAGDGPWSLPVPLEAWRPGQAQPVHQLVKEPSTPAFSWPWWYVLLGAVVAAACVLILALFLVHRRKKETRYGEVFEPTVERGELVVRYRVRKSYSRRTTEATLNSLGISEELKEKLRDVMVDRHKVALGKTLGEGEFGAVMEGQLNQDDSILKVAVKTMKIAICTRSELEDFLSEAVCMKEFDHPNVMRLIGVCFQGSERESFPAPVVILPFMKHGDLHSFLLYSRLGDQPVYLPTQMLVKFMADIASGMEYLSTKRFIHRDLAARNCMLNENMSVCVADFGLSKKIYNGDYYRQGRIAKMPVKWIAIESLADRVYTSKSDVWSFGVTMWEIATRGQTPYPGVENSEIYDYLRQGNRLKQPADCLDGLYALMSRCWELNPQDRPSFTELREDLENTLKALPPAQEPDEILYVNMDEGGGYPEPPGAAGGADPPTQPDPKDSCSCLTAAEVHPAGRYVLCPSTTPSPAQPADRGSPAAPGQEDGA
Kind of test: TR-FRET kinase activity assay, AXL. The test is classed as biochemical. To be noted: ATP at Km, 60 minutes. An outline of the steps: (§1)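 Recombinant human kinases, fluorescent peptide substrate, ATP at Km; 1 h RT, pH 7.5. EDTA-quenched, Eu antibody added, TR-FRET read; IC50 determined.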

Test [2] has as its target T2, FLT3 (Homo sapiens, UniProt P36888).
T2 sequence (P36888 27-993): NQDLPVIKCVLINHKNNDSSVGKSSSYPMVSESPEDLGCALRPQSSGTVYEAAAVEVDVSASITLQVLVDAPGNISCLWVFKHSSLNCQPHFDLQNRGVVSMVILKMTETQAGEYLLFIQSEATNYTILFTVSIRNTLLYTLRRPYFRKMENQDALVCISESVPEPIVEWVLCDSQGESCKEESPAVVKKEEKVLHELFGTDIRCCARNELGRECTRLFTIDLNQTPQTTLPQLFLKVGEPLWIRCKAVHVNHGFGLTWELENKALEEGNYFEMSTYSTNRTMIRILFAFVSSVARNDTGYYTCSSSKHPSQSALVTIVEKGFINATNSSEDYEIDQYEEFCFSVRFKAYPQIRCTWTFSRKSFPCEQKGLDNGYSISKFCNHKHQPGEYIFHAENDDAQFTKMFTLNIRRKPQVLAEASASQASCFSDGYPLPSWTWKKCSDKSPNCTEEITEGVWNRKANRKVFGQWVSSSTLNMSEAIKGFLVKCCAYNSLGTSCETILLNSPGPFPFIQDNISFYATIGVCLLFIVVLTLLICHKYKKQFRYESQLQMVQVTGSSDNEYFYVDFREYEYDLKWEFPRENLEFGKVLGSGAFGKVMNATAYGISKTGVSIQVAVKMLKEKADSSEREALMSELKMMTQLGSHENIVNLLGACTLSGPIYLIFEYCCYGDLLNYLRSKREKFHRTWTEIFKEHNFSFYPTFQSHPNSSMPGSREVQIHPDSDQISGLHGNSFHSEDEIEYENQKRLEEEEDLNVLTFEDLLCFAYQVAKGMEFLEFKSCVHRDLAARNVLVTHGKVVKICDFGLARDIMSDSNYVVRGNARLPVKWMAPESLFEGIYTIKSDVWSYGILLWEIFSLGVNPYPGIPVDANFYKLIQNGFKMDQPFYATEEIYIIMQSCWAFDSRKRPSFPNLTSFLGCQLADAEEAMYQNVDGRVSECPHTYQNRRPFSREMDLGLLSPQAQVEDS
Kind of test: TR-FRET kinase activity assay, FLT3. The test is classed as biochemical. To be noted: ATP at Km, 60 minutes. An outline of the steps:
as §1

A word on the IC50: it is the concentration at which inhibition is half-maximal. Read a low IC50 as greater potency in that assay.

Turning to `C[C@@H](CC(F)F)Nc1ncc2c(-c3ccc(S(C)(=O)=O)nc3)cc([C@H]3CC[C@H](O)CC3)n2n1` [Compound 489], the IC50 in test [1] and in test [2] was at most 100 nM in each case.

Regarding `COC[C@H](C)Nc1ncc2c(-c3ccnc(N4CCOCC4=O)c3)cc([C@H]3CC[C@H](O)CC3)n2n1` [Compound 423], the IC50 in test [1] was at most 100 nM; in test [2], 100 to 1000 nM.

For the compound `COC[C@H](C)Nc1ncc2c(C3=C[C@H]4CC[C@@H](C3)N4CC(F)(F)F)cc([C@H]3CC[C@H](O)CC3)n2n1` [Compound 492], the values for the IC50 in test [1] and in test [2] were at most 100 nM and 1000 to 10000 nM, respectively.

For the compound `COC[C@H](C)Nc1ncc2c(-c3ccnc(N4CCC5(CC4)COC5)c3)cc([C@H]3CC[C@H](O)CC3)n2n1` [Compound 427], the results for the IC50 in test [1] and in test [2] were at most 100 nM and 100 to 1000 nM, respectively.

Take `COC[C@H](C)Nc1ncc2c(-c3cnn(C4COC4)c3)cc(-c3ccc(OC)cc3)n2n1` [Compound 502]: the results for the IC50 in test [1] and in test [2] were 100 to 1000 nM and 1000 to 10000 nM, respectively.

In the case of `COC[C@H](C)Nc1ncc2c(-c3ccc(CC(=O)O)cc3)cc([C@H]3CC[C@H](O)CC3)n2n1` [Compound 133], the half-maximal inhibitory concentration (IC50) in test [1] was at most 100 nM; in test [2] it was 100 to 1000 nM.

Turning to `COC[C@H](C)Nc1ncc2c(-c3cnn(C4COC4)c3)cc(C3CCOCC3)n2n1` [Compound 503], the half-inhibitory concentration (IC50) in test [1] fell in the range of 100 to 1000 nM; in test [2], 1000 to 10000 nM.

As to `COC[C@H](C)Nc1ncc2c(CC#N)cc([C@H]3CC[C@H](O)CC3)n2n1` [Compound 497], the concentration for half-maximal inhibition (IC50) in test [1] fell in the range of 100 to 1000 nM; in test [2], 1000 to 10000 nM.

Take `COC[C@H](C)Nc1ncc2c(-c3cnn(C[C@@H]4CCO4)c3)cc([C@H]3CC[C@H](O)CC3)n2n1` [Compound 478]: the figures for the IC50 in test [1] and in test [2] were at most 100 nM and 1000 to 10000 nM, respectively.

For the compound `COC[C@H](C)Nc1ncc2c(-c3cnn(C(C)(C)C(=O)N4CCC(C)(O)CC4)c3)cc([C@H]3CC[C@H](O)CC3)n2n1` [Compound 450], the IC50 in test [1] was at most 100 nM; in test [2], 1000 to 10000 nM.

Consider `COC[C@H](C)Nc1ncc2c(-c3cnn(C4COC4)c3)cc(-c3ccc(O)nc3)n2n1` [Compound 501], for which the IC50 in test [1] lay in the range of 100 to 1000 nM; in test [2], 1000 to 10000 nM.

On to `COC[C@H](C)Nc1ncc2c(-c3cccc(C4CCc5nc(C)[nH]c5C4)c3)cc([C@H]3CC[C@H](O)CC3)n2n1` (stereo partly shown) [Compound 498], for which the IC50 in test [1] is at most 100 nM; in test [2] it was 100 to 1000 nM.

Turning to `CNS(=O)(=O)c1ccc(-c2cc([C@H]3CC[C@H](O)CC3)n3nc(N[C@@H](C)COC(F)F)ncc23)cn1` [Compound 424], the IC50 in test [1] is at most 100 nM; in test [2], 100 to 1000 nM.

As for `C[C@@H](CC(F)(F)F)Nc1ncc2c(C3=C[C@@H]4CC[C@H](C3)N4)cc([C@H]3CC[C@H](O)CC3)n2n1` [Compound 499], the IC50 in test [1] is at most 100 nM; in test [2] it was 100 to 1000 nM.

For the compound `COC[C@H](C)Nc1ncc2c(C3=C[C@@H]4CC[C@H](C3)N4C)cc([C@H]3CC[C@H](O)CC3)n2n1` [Compound 465], the IC50 in test [1] is at most 100 nM; in test [2], 1000 to 10000 nM.

Consider `CC(CC1COC1)Nc1ncc2c(-c3cnn(C4COC4)c3)cc([C@H]3CC[C@H](O)CC3)n2n1` (mixture of isomers) [Compound 447], for which the IC50 in test [1] and in test [2] was 1000 to 10000 nM throughout.

In the case of `CCC(=O)N1CCN(c2cc(-c3cc([C@H]4CC[C@H](O)CC4)n4nc(N[C@@H](C)COC)ncc34)ccn2)CC1` [Compound 432], the figures for the IC50 in test [1] and in test [2] were at most 100 nM and 100 to 1000 nM, respectively.
